Experiments:
[1] = target: T1, myosin heavy chain α (Rattus norvegicus, UniProt P02563); assay: Modified biotin switch assay, sites of HNO modification; format: biochemical; settings: for number of independent observations of peptide: Cys 37, 25 μM NCA or 500 μM AS; for Position of modified Cys: myosin heavy chain (α), Table 2
T1 construct: Rat myofibrillar preparations, as described in [7], were obtained from frozen ventricles (Pel Freez Biologicals); tissue Pel Freez Biologicals; host or cells: myofibrils from frozen rat ventricles
Description: (§1) Rat myofibrillar preparations, as described in [7], were obtained from frozen ventricles (Pel Freez Biologicals) minced in 20 volumes/tissue weight of 4° C. relax buffer (SRB (75 mM KCL, 10 mM imidazole pH 7.2, 2 mM MgCl2) plus 4 mM phosphocreatine, 1 mM ATP, 50 mM BDM, 1 mM benzamidine-HCL, 0.1 mM PMSF, 1 μg/ml leupeptin, 1 μg/ml pepstatin, 1% (v/v) Trixon X-100) and adjusted to 10 mM EDTA. Minced preparations were centrifuged for 8 min at 3000xg and the supernant was decanted. Resulting pellets were resuspended in 10 volumes of SRB plus 1% Triton X-100 and subjected to 6 strokes in a Duall tissue homogenizer and centrifuged as above. Pellets were gently resuspended and centrifuged as above twice more in SRB including 1% (v/v) Triton X-100, twice in SRB lacking Triton X-100 and once in K-60 buffer (60 mM KCL, 20 mM MOPS, 2 mM MgCl2 pH 7) before being resuspended in 5 volumes of K-60.
(§2) Detection of HNO modifications by Modified Biotin Switch. HNO modified thiols were detected using a modification to the standard biotin switch protocol. In brief, 100 μg of rat myofibrils/treatment were diluted to 0.5 μg/μl in HEN (250 mM HEPES pH 7.7, 1 mM EDTA and 0.1 mM neocuproine) including 0.1% (w/v) SDS and exposed to a treatment for 10 min at 37° C. which was subsequently removed by acetone precipitation. Remaining free thiols were blocked by addition of 300 μl of HEN including 2.5% (w/v) SDS and 20 mM N-ethylmaleimide (NEM), incubated for 20 min at 50° C. Excess NEM was removed by acetone precipitation. HNO and/or NO modified thiols were reduced using 5 mM DTT or 1 mM ascorbate in 150 μl of HEN including 1% (w/v) SDS and biotinylated with 0.8 mM Biotin-HPDP (Pierce) for one hour at room temperature. Excess biotin-HPDP was removed by acetone precipitation (2 volumes) and resultant pellets were carefully washed with an additional volume of acetone. Biotinylated proteins were resuspended in 1 ml of HEN including 0.1% (w/v) SDS and captured by incubation with 15 μl of washed, packed Ultralink Immobilized Streptavidin (Pierce) for one hour at room temperature. Beads were washed four times in 50 bead volumes of HEN (twice including 0.1% (w/v) SDS, twice including 600 mM NaCl) and twice with EB (20 mM HEPES pH 7.7, 100 mM NaCl, 1 mM EDTA). Captured proteins were eluted with 40 μl of EB containing 100 mM DTT, mixed with 15 μl of 4×LDS sample buffer, boiled, separated by SDS PAGE and silver stained. For MS studies, biotinylated proteins were digested overnight with trypsin (Promega) prior to capture and washed ten additional times with 5 mM ammonium bicarbonate/20% acetonitrile before being eluted in 100 μl of wash buffer including 100 mM DTT as described. Captured peptides were identified using a LTQ linear ion trap tandem mass spectrometer (ThermoFinnigan, Waltham Mass. USA) with data searched against the rat IPI primary sequence database using the sorcerer searching platform (sagen).
(§3) To investigate the modifications that underlie the difference seen in the functional effect of these two compounds we performed an analysis on the myofilament proteins, using a modified biotin-switch method, followed by mass spectrometry for identification (FIG. 3). Following treatment with HNO or control compounds, unmodified cysteines are blocked with NEM before treatment with a reducing agent and labeling the exposed cysteines with a biotin group (FIG. 3A). In this case, 5 mM DTT was used as the reducing agent because it was shown in the physiological studies to reverse the effect of the treatment. […] Tryptic or chymotryptic peptides containing the modified cysteine residues were captured and identified by LC/MS/MS. […] To parse the role of candidate sites of modification between these two effects a comparative proteomics experiment was designed where modifications specific to NCA treatment would be considered candidates for the Ca^2+ effect while sites identified in common between AS and NCA could be candidates for the force effect (FIG. 3C). […]

[2] = target: T2, myson binding protein C (Rattus norvegicus, UniProt P56741); assay: as above; format: biochemical; settings: for number of independent observations of peptide: Cys 475, 25 μM NCA or 500 μM AS; for Position of modified Cys: myosin binding protein C, Table 2
T2 construct: Rat myofibrillar preparations, as described in [7], were obtained from frozen ventricles (Pel Freez Biologicals); tissue Pel Freez Biologicals; host or cells: myofibrils from frozen rat ventricles
Description: as §1, §2, §3

T1 sequence (P02563 whole entry): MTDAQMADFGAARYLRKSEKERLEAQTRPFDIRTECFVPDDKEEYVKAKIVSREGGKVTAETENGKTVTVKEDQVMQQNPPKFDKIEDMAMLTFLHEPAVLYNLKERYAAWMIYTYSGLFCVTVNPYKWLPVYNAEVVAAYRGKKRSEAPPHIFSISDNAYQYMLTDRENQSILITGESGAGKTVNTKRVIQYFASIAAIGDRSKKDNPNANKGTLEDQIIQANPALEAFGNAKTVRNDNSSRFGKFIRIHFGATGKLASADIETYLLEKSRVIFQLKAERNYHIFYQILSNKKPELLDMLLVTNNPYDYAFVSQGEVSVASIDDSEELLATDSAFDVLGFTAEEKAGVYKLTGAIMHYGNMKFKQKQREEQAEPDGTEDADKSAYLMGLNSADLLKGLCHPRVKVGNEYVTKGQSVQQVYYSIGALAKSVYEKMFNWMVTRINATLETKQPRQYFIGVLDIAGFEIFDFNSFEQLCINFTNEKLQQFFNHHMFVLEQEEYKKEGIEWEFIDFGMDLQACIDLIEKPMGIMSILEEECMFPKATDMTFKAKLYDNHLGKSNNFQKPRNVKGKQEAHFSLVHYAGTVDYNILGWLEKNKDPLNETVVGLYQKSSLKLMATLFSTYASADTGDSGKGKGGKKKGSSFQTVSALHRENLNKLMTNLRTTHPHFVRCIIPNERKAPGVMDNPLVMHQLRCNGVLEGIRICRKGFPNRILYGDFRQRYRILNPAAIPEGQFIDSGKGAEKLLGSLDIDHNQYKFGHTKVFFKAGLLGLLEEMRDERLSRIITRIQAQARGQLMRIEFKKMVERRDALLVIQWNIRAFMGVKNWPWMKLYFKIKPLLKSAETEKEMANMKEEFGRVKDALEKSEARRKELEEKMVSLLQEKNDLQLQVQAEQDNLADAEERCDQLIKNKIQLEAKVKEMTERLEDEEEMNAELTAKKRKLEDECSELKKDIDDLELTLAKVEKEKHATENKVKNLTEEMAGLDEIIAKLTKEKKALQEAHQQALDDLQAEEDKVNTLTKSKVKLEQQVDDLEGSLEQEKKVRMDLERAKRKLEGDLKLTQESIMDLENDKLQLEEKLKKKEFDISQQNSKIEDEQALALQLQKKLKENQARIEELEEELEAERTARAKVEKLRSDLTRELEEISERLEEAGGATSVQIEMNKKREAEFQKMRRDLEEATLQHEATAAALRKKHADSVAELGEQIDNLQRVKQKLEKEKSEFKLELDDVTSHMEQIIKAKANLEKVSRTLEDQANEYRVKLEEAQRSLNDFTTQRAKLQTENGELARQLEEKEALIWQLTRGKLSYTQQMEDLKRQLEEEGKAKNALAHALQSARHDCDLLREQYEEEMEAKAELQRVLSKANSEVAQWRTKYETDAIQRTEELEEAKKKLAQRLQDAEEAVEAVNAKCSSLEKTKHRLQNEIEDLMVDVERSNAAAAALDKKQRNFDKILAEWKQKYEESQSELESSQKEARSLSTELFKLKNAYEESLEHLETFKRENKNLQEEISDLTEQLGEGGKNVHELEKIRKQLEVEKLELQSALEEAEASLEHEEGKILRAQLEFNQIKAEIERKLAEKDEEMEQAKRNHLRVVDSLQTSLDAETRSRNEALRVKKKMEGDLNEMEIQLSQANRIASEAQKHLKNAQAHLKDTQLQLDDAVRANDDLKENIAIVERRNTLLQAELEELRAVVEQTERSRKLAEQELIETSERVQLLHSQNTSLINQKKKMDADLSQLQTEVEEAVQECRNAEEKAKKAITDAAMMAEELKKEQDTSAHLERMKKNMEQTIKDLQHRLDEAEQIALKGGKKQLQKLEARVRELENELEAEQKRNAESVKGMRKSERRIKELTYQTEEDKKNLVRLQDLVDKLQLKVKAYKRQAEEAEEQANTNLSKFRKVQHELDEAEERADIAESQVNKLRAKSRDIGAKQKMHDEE
T2 sequence (P56741 whole entry): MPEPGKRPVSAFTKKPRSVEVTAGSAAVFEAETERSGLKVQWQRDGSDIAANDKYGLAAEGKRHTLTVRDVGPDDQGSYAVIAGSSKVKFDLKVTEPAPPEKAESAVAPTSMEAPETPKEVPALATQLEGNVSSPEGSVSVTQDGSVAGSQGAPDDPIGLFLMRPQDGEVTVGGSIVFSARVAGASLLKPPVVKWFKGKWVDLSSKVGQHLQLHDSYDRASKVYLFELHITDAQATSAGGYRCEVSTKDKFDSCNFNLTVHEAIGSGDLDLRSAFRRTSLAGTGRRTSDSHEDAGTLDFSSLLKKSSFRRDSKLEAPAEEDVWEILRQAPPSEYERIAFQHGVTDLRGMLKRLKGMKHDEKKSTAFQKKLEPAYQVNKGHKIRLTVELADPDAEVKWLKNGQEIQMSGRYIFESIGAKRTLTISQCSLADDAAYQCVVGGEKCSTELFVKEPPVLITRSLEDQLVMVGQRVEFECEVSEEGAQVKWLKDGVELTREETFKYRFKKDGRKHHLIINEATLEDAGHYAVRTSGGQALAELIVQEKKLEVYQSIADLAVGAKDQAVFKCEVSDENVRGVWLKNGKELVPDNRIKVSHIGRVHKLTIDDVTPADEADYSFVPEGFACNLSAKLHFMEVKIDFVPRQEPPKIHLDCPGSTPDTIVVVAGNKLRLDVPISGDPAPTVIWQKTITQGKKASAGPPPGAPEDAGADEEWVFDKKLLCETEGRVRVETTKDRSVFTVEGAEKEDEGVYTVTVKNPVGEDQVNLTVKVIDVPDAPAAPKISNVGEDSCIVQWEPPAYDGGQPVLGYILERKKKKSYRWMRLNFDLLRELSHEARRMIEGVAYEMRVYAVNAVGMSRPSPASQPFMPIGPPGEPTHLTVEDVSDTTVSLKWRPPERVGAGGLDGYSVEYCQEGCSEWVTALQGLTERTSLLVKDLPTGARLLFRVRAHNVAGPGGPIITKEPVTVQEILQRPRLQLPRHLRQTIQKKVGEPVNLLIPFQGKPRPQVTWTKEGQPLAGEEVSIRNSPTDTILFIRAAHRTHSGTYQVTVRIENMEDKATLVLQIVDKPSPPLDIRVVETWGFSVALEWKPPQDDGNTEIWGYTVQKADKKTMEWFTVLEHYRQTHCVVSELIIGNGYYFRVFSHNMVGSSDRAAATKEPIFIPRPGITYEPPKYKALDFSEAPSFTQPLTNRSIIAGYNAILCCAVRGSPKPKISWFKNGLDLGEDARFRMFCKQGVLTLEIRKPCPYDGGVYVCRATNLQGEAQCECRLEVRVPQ

CC(=O)OC1(N=O)CCCCC1 [NCA, 1-nitrosocyclohexylacetate]
number of independent observations of peptide ([1]; tryptic peptide TECFVPDDKEEYVK): 3 | Position of modified Cys [1]: 37(α) | number of independent observations of peptide ([2]; tryptic peptide VEFECEVSEEGAQVK): 1 | Position of modified Cys [2]: 475

[Na+].[Na+].[O-][N+]([O-])=NO [AS, Angeli's Salt]
number of independent observations of peptide ([1]; chymotryptic peptide DIRTECFVPDDKEEY): 3 | number of independent observations of peptide ([1]; tryptic peptide TECFVPDDKEEYVK): 3 | Position of modified Cys [1]: 37(α) | number of independent observations of peptide ([2]; chymotryptic peptide ECEVSEEGAQVKW): 2 | Position of modified Cys [2]: 475

— US20120231482A1, “METHOD, KIT OR DIAGNOSTIC FOR THE DETECTION OF REAGENTS WHICH INDUCE ALTERED CONTRACTILITY” (THE JOHNS HOPKINS UNIVERSITY, priority 2009, published 2012)
